Data: the supplement of paper PMC4862054
Several values for one entry are separate records, joined by “and”; a condition that tells them apart may be missing. Equal values may be shown once.

Columns and labels:
Settings in all cases: incubation time: 72 h
BT-549 = experiment: normalised response (% of control), CellTiter-Glo; higher = more viable cells (100 = DMSO, 0 = benzethonium chloride kill control)
Protocol: (§1)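 DSRT, 72 h incubation, CellTox Green / CellTiter-Glo readout. Signal is normalised to DMSO and benzethonium chloride controls. Value is the normalised response at the highest dose.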

MFM-223 [1] = experiment: as above
Protocol: as §1

HCC1143 = experiment: as above
Protocol: as §1

MCF-10A = experiment: as above
Protocol: as §1

CAL-120 = experiment: as above
Protocol: as §1

Hs578T [2] = experiment: as above
Protocol: as §1

SK-BR-3 = experiment: as above
Protocol: as §1

DU-4475 [3] = experiment: as above
Protocol: as §1

HCC1937 [4] = experiment: as above
Protocol: as §1

BT-474 = experiment: as above
Protocol: as §1

MDA-MB-453 [5] = experiment: normalised viability (% of control), CellTiter-Blue; higher = more viable cells (about 100 = DMSO control)
Protocol: (§2)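 DSRT, CellTiter-Blue viability, 72 h incubation. Signal is normalised to DMSO and benzethonium chloride controls. Value is the normalised response at dose 9.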

CAL-85-1 [6] = experiment: as above
Protocol: as §2

CAL-51 [7] = experiment: as above
Protocol: as §2

CAL-148 [8] = experiment: as above
Protocol: as §2

DU-4475 [9] = experiment: as above
Protocol: as §2

HDQ-P1 = experiment: as above
Protocol: as §2

MDA-MB-453 [10] = experiment: normalised viability (% of control), CellTiter-Blue; higher = more viable cells (about 100 = DMSO control); remark: listed apart in the source
Procedure, shortened: (§3)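 Each entry is normalised viability at a single listed concentration within a series. It comes from breast cancer cell lines incubated 72 h with compound in 384-well plates, then measured with CellTiter-Blue fluorescence at 560/590 nm. Every plate was normalised between vehicle (100) and a positive kill control (0).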

MFM-223 [11] = experiment: as above
Procedure, shortened: as §3

HCC1599 = experiment: as above
Procedure, shortened: as §3

Hs578T [12] = experiment: as above
Procedure, shortened: as §3

CAL-85-1 [13] = experiment: as above; remark: listed apart in the source
Procedure, shortened: as §3

CAL-51 [14] = experiment: as above; remark: listed apart in the source
Procedure, shortened: as §3

CAL-148 [15] = experiment: as above; remark: listed apart in the source
Procedure, shortened: as §3

DU-4475 [16] = experiment: as above; remark: listed apart in the source
Procedure, shortened: as §3

HCC1937 [17] = experiment: as above
Procedure, shortened: as §3

MDA-MB-231 = experiment: as above
Procedure, shortened: as §3

## CC(=O)O[C@@]12CO[C@@H]1C[C@H](O)[C@@]1(C)C(=O)[C@H](O)C3=C(C)[C@@H](OC(=O)[C@H](O)[C@@H](NC(=O)OC(C)(C)C)c4ccccc4)C[C@@](O)([C@@H](OC(=O)c4ccccc4)[C@H]21)C3(C)C [Docetaxel] (1000 nM)
BT-549
  normalised response: 17.1%
MFM-223 [1]
  normalised response: 48.9%
HCC1143
  normalised response: 38.3%
MCF-10A
  normalised response: 48%
CAL-120
  normalised response: 55.3%
Hs578T [2]
  normalised response: 13.6%
SK-BR-3
  normalised response: 10.7%
DU-4475 [3]
  normalised response: 44%
HCC1937 [4]
  normalised response: 73.8%
BT-474
  normalised response: 39.3%
MDA-MB-453 [5]
  normalised viability: 23.1% and 24.4%
CAL-85-1 [6]
  normalised viability: 32.1% and 32.3%
CAL-51 [7]
  normalised viability: 16.2% and 12.2%
CAL-148 [8]
  normalised viability: 23.1% and 21.2%
DU-4475 [9]
  normalised viability: 11.7% and 10.5%
HDQ-P1
  normalised viability: 51.3% and 42.4%

## CC1(C)CNc2cc(NC(=O)c3cccnc3NCc3ccncc3)ccc21 [Motesanib] (10000 nM)
BT-549
  normalised response: 97%
MFM-223 [1]
  normalised response: 88.1%
HCC1143
  normalised response: 94.8%
MCF-10A
  normalised response: 95.4%
CAL-120
  normalised response: 103%
Hs578T [2]
  normalised response: 91.8%
SK-BR-3
  normalised response: 86.3%
DU-4475 [3]
  normalised response: 98.6%
HCC1937 [4]
  normalised response: 97.8%
BT-474
  normalised response: 90.9%
MDA-MB-453 [5]
  normalised viability: 69.4%
CAL-85-1 [6]
  normalised viability: 78.2%
CAL-51 [7]
  normalised viability: 97.2%
CAL-148 [8]
  normalised viability: 91.8%
DU-4475 [9]
  normalised viability: 88.6%
HDQ-P1
  normalised viability: 92.2%

## CC[C@@H]1C(=O)OC[C@@H]1Cc1cncn1C [Pilocarpine] (40000 nM)
BT-549
  normalised response: 102%
MFM-223 [1]
  normalised response: 97.6%
HCC1143
  normalised response: 89.6%
MCF-10A
  normalised response: 99.1%
CAL-120
  normalised response: 91.2%
Hs578T [2]
  normalised response: 99%
SK-BR-3
  normalised response: 102%
DU-4475 [3]
  normalised response: 95.7%
HCC1937 [4]
  normalised response: 96.7%
BT-474
  normalised response: 91.6%
MDA-MB-453 [5]
  normalised viability: 43.7%
CAL-85-1 [6]
  normalised viability: 64.4%
CAL-51 [7]
  normalised viability: 84.5%
CAL-148 [8]
  normalised viability: 73.2%
DU-4475 [9]
  normalised viability: 68.7%
HDQ-P1
  normalised viability: 135%

## CC(C)(C)c1cnc(CSc2cnc(NC(=O)C3CCNCC3)s2)o1 [SNS-032] (10000 nM)
BT-549
  normalised response: 5.15%
MFM-223 [1]
  normalised response: 32%
HCC1143
  normalised response: 15.1%
MCF-10A
  normalised response: 17.1%
CAL-120
  normalised response: 43.3%
Hs578T [2]
  normalised response: 8.34%
SK-BR-3
  normalised response: 4.26%
DU-4475 [3]
  normalised response: 10.3%
HCC1937 [4]
  normalised response: 38.6%
BT-474
  normalised response: 31.8%
MDA-MB-453 [5]
  normalised viability: 18.6%
CAL-85-1 [6]
  normalised viability: 2.06%
CAL-51 [7]
  normalised viability: 4.67%
CAL-148 [8]
  normalised viability: 21.8%
DU-4475 [9]
  normalised viability: -0.36%
HDQ-P1
  normalised viability: 12.7%

## Cn1cnc2c(F)c(Nc3ccc(Br)cc3Cl)c(C(=O)NOCCO)cc21 [Selumetinib] (10000 nM)
BT-549
  normalised response: 84.1%
MFM-223 [1]
  normalised response: 67.9%
HCC1143
  normalised response: 76.6%
MCF-10A
  normalised response: 31.8%
CAL-120
  normalised response: 66.8%
Hs578T [2]
  normalised response: 76.4%
SK-BR-3
  normalised response: 92%
DU-4475 [3]
  normalised response: 0.53%
HCC1937 [4]
  normalised response: 76.3%
BT-474
  normalised response: 55.5%
MDA-MB-453 [5]
  normalised viability: 75.8%
CAL-85-1 [6]
  normalised viability: 49.6%
CAL-51 [7]
  normalised viability: 80.3%
CAL-148 [8]
  normalised viability: 89.9%
DU-4475 [9]
  normalised viability: 0.33%
HDQ-P1
  normalised viability: 65.7%

## Nc1nc2[nH]cnc2c(=S)[nH]1 [Thioguanine]
MDA-MB-453 [10]; 3 nM
  normalised viability: 132%
MDA-MB-453 [10]; 30 nM
  normalised viability: 102%
MDA-MB-453 [10]; 100 nM
  normalised viability: 98.6%
MFM-223 [11]; 10 nM
  normalised viability: 89.4%
MFM-223 [11]; 1000 nM
  normalised viability: 88.6%
MFM-223 [11]; 10000 nM
  normalised viability: 82.2%
HCC1599; 10 nM
  normalised viability: 111%
HCC1599; 1000 nM
  normalised viability: 77%
HCC1599; 10000 nM
  normalised viability: 103%
Hs578T [12]; 10 nM
  normalised viability: 137%
Hs578T [12]; 1000 nM
  normalised viability: 96.4%
Hs578T [12]; 10000 nM
  normalised viability: 32.9%
CAL-85-1 [13]; 3 nM
  normalised viability: 111%
CAL-85-1 [13]; 30 nM
  normalised viability: 97.4%
CAL-85-1 [13]; 100 nM
  normalised viability: 104%
CAL-51 [14]; 3 nM
  normalised viability: 114%
CAL-51 [14]; 30 nM
  normalised viability: 109%
CAL-51 [14]; 100 nM
  normalised viability: 109%
CAL-148 [15]; 3 nM
  normalised viability: 105%
CAL-148 [15]; 30 nM
  normalised viability: 116%
CAL-148 [15]; 100 nM
  normalised viability: 102%
DU-4475 [16]; 3 nM
  normalised viability: 120%
DU-4475 [16]; 30 nM
  normalised viability: 112%
DU-4475 [16]; 100 nM
  normalised viability: 116%
HCC1937 [17]; 10 nM
  normalised viability: 76.3%
HCC1937 [17]; 1000 nM
  normalised viability: 86.1%
HCC1937 [17]; 10000 nM
  normalised viability: 40.4%
MDA-MB-231; 10 nM
  normalised viability: 92.7%
MDA-MB-231; 1000 nM
  normalised viability: 58.4%
MDA-MB-231; 10000 nM
  normalised viability: 56%

## Nc1nc2[nH]cnc2c(=S)[nH]1 [Thioguanine] (10000 nM)
BT-549
  normalised response: 48.5%
MFM-223 [1]
  normalised response: 72.9%
HCC1143
  normalised response: 66.7%
MCF-10A
  normalised response: 66.9%
CAL-120
  normalised response: 37%
Hs578T [2]
  normalised response: 33.2%
SK-BR-3
  normalised response: 62.1%
DU-4475 [3]
  normalised response: 24.1%
HCC1937 [4]
  normalised response: 35.8%
BT-474
  normalised response: 40.8%
MDA-MB-453 [5]
  normalised viability: 73.1%
CAL-85-1 [6]
  normalised viability: 61.8%
CAL-51 [7]
  normalised viability: 54.2%
CAL-148 [8]
  normalised viability: 42%
DU-4475 [9]
  normalised viability: 73.8%
HDQ-P1
  normalised viability: 58.5%
